Data published in US20240150691A1, “BILE DUCT CHIP AND USE THEREOF” (Kyoto University, priority 2021, published 2024).

Key:
[1] = system: PHH; assay: Fibrosis marker gene expression in PHH treated with TGF-β1 (quantitative RT-PCR); assay type: cell-based, human
Description: (§1) Subsequently, the cellular response of the PHH cultured in the microfluidic device and the polystyrene plate to a recombinant protein was examined. Specifically, PHH was treated with transforming growth factor-β1 (TGF-β1), which is one of the causative factors of hepatic fibrosis. The PHH was exposed to 100 ng/mL TGF-β1 for 48 hours. Subsequently, the amount of TGF-β1 in the cell culture supernatant was measured according to ELISA.
Subsequently, the gene expression levels of ACTA2, COL1A1, and TIMP1, which are fibrosis markers, were measured by quantitative RT-PCR.
In FIG. 36, the vertical axis indicates a relative value in a case where the gene expression level in the cells (control) treated with phosphate buffered saline (PBS) is set to 1. […] The data is indicated as average value±standard deviation (n=3).
Subsequently, the gene expression level of TGF-β type II receptor (TGFBR2) was measured. […] Subsequently, the gene expression level of TGFBR2 was measured by quantitative RT-PCR.

[2] = Measurement of active TGF-β1 in culture supernatant (ELISA), adsorption to culture vessel; conditions: 100 ng/mL TGF-β1, 48 hours
Description: PHH was treated with 100 ng/mL of TGF-β1 for 48 hours. In order to quantify active TGF-β1 in the supernatant, the culture medium was recovered and analyzed according to the instruction manual using a TGF beta-1 Human ELISA Kit (BMS249-4, Thermo Fisher Scientific, Inc.). The amount of active TGF-β1 was calculated based on each standard.
as §1
FIG. 35 is a graph showing the results of ELISA. In FIG. 35, “top” indicates the results for the upper layer flow path, and “bottom” indicates the results for the lower layer flow path.

[3] = system: CYP1A2; assay: CYP induction test (quantitative RT-PCR) in PHH; assay type: cell-based, human; conditions: 50 μM omeprazole, 48 hours, versus DMSO
Description: (§2) PHH was treated with 50 μM omeprazole, 500 μM phenobarbital, or 20 μM rifampicin (all of which are from FUJIFILM Wako Pure Chemical Corporation) for 48 hours. Each of these drugs is known to induce CYP1A2, 2B6, and 3A4. In order to measure the inducibility of CYP1A2, 2B6, and 3A4, the expression level of CYP was measured by quantitative RT-PCR. The expression level of the target gene was standardized with the expression level of GAPDH. The inducibility was calculated as a change in expression level in terms of folds in cells treated with DMSO.
(§3) PHH was seeded in each of a microfluidic device and a polystyrene plate and cultured for 24 hours. Subsequently, the cultured PHH was treated with 50 μM omeprazole, 500 μM phenobarbital, or […] rifampicin for 48 hours. […] Subsequently, the expression level of each CYP gene was measured by quantitative RT-PCR. Cells treated with DMSO (final concentration: 0.1%) were used as a control.

[4] = Drug absorption in microfluidic device without PHH (LC-MS/MS); assay type: physicochemical; conditions: for Drug absorption rate: Microfluidic device/Polystyrene plate; for Drug absorption rate / concentration as % of initial concentration: without PHH; for concentration during the observation period: 1 to 4 hours, microfluidic device; for absorption in the microfluidic device: PDMS device without PHH; for concentration as % of initial concentration: 1 hour after the injection into the microfluidic device
Description: (§4) A culture medium containing MDZ, DIC, PHE, BUF, or MPHT was added to a microfluidic device or a polystyrene plate. Subsequently, 1, 2, and 4 hours after the addition of the drugs, the amounts of these drugs were quantified with LC-MS/MS.
as §4, with “APAP (a CYP1A2 metabolite), 1OH-MDZ (a CYP3A4 metabolite), 4OH-DIC (a CYP2C9 metabolite), 4OH-MPHT (a CYP2C19 metabolite),” for “MDZ, DIC, PHE, BUF,”, “1OH-BUF (a CYP2D6 metabolite)” for “MPHT”
Subsequently, it was examined whether the absorption of the drugs and metabolites could be predicted by the relative physicochemical characteristics between the microfluidic device and the polystyrene plate. The drug absorption rate between the microfluidic device and the polystyrene plate was calculated. Subsequently, a correlation coefficient R^2 value between the drug absorption rate and the physicochemical characteristics (DiffCoef, M Log P, S+Log P, S+log D, MWt, and tPSA) of the drugs was calculated.

[5] = system: GFP-expressing HuCCT1 cells; assay: Formation of tubular bile duct-like structure in microfluidic device; assay type: cell-based, human; conditions: 10 ng/mL in culture medium, 4 days, lower layer flow path
Description: GFP-expressing HuCCT1 cells were seeded in the lower layer flow path of the microfluidic device in the presence or absence of 10 ng/mL of DLL1 or DLL4, and after 4 days, a cross-sectional image of the microfluidic device was acquired.

[6] = system: CYP2B6; assay: CYP induction test (quantitative RT-PCR) in PHH; conditions: 500 μM phenobarbital, 48 hours, versus DMSO
Description: as §2, §3

[7] = system: CYP3A4; assay: Measurement of CYP activity using CYP substrates in PHH (MDZ to 1OH-MDZ); assay type: in vitro ADME, human
Description: The LC-MS/MS analysis was carried out to measure the activity of CYP. Prior to a CYP substrate treatment, PHH was cultured in DMEM containing 10 mM HEPES for 30 minutes. Subsequently, the PHH was cultured in a culture medium containing 5 μM MDZ (the metabolite thereof is 1OH-MDZ), 50 μM MPHT (the metabolite thereof is 4OH-MPHT), 5 μM DIC (the metabolite thereof is 4OH-DIC), 10 μM BUF (the metabolite thereof is 1OH-BUF), or 50 μM PHE (the metabolite thereof is APAP). The supernatant was recovered 1, 2, and 4 hours after the treatment with the substrate. At the time of recovering the supernatant, an equal amount of a culture medium containing the substrate was added.
The recovered supernatant was mixed with acetonitrile (FUJIFILM Wako Pure Chemical Corporation) containing an equal volume of 5 μM propranolol (internal standard). The specimen was filtered through a Cosmonice Filter W (Nacalai Tesque, Inc.) having a pore size of 0.45 μm, the supernatant was subsequently analyzed by LC-MS/MS, and the concentration of the metabolite was measured based on the standard curve. The LC-MS/MS analysis was carried out using LCMS-8040 (Shimadzu Corporation).
Subsequently, the drug metabolic activities of the PHH cultured in the PDMS device and the PS plate were compared. First, PHH was treated with each of MDZ, DIC, PHE, BUF, and MPHT, which are substrates of CYP3A4, CYP2C9, CYP1A2, CYP2D6, and CYP2C19. Subsequently, after 1, 2, and 4 hours, the amounts of the metabolites (OH-MDZ, 4OH-DIC, APAP, 1OH-BUF, and 4OH-MPHT) generated in the culture medium were measured by LC-MS/MS.

[8] = system: CYP3A; assay type: in vitro ADME, human
Description: The supernatant was recovered 1, 2, and 4 hours after the treatment with the substrate. At the time of recovering the supernatant, an equal volume of a culture medium containing the substrate was added.
A fraction (20 μL) of the recovered supernatant was mixed with 20 μL of Milli-Q water and 120 μL of acetonitrile containing […] 10 nM of an internal standard (fluvastatin, FUJIFILM Wako Pure Chemical Corporation). After centrifugation, 100 μL of the supernatant was analyzed by LC-MS/MS.
Chromatography was carried out using a Nexera X2 LC system (Shimadzu Corporation), and quantification was carried out using QTRAP 5500+ (AB Sciex LLC).
A mass spectrometer was set to an MRM mode and operated with an electrospray ionization source.

[9] = target: T1, MRP2 (Homo sapiens, UniProt Q92887); assay: CDFDA transport assay; assay type: cell-based; conditions: 10 μM CDFDA in upper layer flow path, 3 hours, co-culturing with HuCCT1 cells versus PHH only
T1 construct: endogenous in cells; host or cells: primary human hepatocytes (PHH), alone or co-cultured with HuCCT1 cells, in the microfluidic device
T1 sequence (Q92887 whole entry): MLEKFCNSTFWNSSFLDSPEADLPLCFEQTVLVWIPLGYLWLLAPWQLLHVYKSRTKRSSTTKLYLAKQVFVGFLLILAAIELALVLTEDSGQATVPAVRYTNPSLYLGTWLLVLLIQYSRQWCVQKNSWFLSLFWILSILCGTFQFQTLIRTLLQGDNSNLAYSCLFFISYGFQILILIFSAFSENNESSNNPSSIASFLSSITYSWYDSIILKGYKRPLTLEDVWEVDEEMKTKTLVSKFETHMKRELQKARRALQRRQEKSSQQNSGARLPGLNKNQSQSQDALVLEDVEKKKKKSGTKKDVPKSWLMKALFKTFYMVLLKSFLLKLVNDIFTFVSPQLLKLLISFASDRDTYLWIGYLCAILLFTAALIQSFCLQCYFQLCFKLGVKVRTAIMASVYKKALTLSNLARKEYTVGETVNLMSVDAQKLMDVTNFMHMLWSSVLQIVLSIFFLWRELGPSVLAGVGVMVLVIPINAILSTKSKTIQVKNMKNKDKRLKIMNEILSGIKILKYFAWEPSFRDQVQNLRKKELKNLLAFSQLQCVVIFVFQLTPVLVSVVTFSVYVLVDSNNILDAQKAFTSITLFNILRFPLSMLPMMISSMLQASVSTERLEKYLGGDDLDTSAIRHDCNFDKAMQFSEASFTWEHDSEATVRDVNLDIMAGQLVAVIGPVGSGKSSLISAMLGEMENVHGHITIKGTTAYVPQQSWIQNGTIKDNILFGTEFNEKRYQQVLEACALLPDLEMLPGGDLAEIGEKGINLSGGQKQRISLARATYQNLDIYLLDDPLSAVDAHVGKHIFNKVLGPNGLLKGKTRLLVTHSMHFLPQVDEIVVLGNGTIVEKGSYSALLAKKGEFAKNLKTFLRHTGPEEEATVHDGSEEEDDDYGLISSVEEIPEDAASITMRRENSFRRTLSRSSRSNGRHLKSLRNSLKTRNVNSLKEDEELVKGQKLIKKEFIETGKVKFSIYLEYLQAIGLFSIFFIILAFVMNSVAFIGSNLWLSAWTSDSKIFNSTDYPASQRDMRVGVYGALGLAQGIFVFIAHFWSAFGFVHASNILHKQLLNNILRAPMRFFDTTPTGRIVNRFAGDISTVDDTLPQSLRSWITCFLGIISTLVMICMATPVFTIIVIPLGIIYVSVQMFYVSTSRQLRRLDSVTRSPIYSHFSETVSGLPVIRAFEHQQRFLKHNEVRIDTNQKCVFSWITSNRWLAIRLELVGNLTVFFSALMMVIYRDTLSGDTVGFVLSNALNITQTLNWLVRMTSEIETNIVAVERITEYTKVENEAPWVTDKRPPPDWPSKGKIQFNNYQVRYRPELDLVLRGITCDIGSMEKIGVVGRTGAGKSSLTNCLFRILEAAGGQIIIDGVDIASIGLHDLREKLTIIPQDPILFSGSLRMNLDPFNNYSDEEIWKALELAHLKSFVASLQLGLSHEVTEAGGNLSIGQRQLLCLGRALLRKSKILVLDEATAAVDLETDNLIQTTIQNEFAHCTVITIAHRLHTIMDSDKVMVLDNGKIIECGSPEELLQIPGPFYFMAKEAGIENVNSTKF
Description: 10 μM of 5(6)-carboxy-2′,7′-dichlorofluorescein diacetate (CDFDA) was added to the upper layer flow path. After 3 hours, the culture supernatant from the lower layer flow path was recovered. The fluorescence intensity of 5(6)-carboxy-2′,7′-dichlorofluorescein (CDF) in the recovered culture supernatant, which is a metabolite of CDFDA, was measured.
Subsequently, 5(6)-carboxy-2′,7′-dichlorofluorescein diacetate (CDFDA) was added to the upper layer flow path of the intrahepatic bile duct chip, and after 3 hours, the fluorescence of the culture medium in the lower layer flow path was measured. In living cells, CDFDA is hydrolyzed to 5(6)-carboxy-2′,7′-dichlorofluorescein (CDF). CDF is a substrate of MRP2, which is a transporter. Therefore, the CDF transported to the lower layer flow path can be quantified by measuring the fluorescence intensity.
FIG. 13 is a graph showing results of measuring the fluorescence intensity.

[10] = system: FXR; assay: Change in bile acid signaling upon drug exposure in PHH (quantitative RT-PCR); conditions: 100 μM CDCA and 2.5 μM GW4046, 72 hours, PHH in microfluidic device or polystyrene plate
Description: Subsequently, a change in bile acid signaling upon drug exposure was examined.
Subsequently, the gene expression levels of BSEP and CYP7A1 were measured by quantitative RT-PCR.

[11] = system: PHH and the HuCCT1 cells of the intrahepatic bile duct chip; assay: Response to bile acid signaling in intrahepatic bile duct chip (quantitative RT-PCR); assay type: cell-based, human; conditions: 100 μM CDCA, 72 hours, versus DMSO
Description: In addition, the response to bile acid signaling in PHH was examined. Chenodeoxycholic acid (CDCA) is one of the major bile acids. […] In addition, a specimen treated with dimethyl sulfoxide (DMSO) instead of CDCA was also prepared for comparison. Subsequently, the gene expression levels of BSEP, NTCP, and CYP7A1 were measured according to quantitative RT-PCR. […] In FIG. 9, the vertical axis indicates a relative value of the expression level of each gene in a case where the expression level in a case where DMSO has been treated is set to 1. […] All data are indicated as average value±standard deviation (n=3).

[12] = 100 ng/mL TGF-β1, 48 hours, microfluidic device or polystyrene plate, versus PBS
[13] = microfluidic device versus polystyrene plate

Which “ACTA2 gene expression level” value [1, 12] does the source give for “TGF-β1: recombinant protein, one of the causative factors of hepatic fibrosis” here?
The value was “increased”.

And the “COL1A1 gene expression level” value [1, 12]?
Its value is “increased”.

And the “TIMP1 gene expression level” value [1, 12]?
The value was “increased”.

What about the “TGFBR2 gene expression level” value ([1]; TGF-β1 treatment, PHH in microfluidic device and polystyrene plate) of the same compound?
Its value is “not changed”.

And the “adsorption of TGF-β1 to the microfluidic device” value [2]?
Its value is “has not allowed the adsorption”.

And the “adsorption of TGF-β1 to the polystyrene plate” value [2]?
The value was “allowed the adsorption”.

With `COc1ccc2[nH]c([S+]([O-])Cc3ncc(C)c(OC)c3C)nc2c1` (centres unmarked) [omeprazole] as the compound, how does the CYP1A2 expression level [3] read?
The CYP1A2 expression level was “induced in both the microfluidic device and the polystyrene plate”.

Which Drug absorption rate [4] does the source give for `CCOc1ccc(NC(C)=O)cc1` [Phenacetin, phenacetin] here?
The Drug absorption rate was 0.9569.

With “DLL4: recombinant human Delta Like Canonical Notch Ligand 4, lumenization factor” as the compound, how does the “formation of the tubular bile duct-like structure” value [5] read?
The value was “accelerates the formation of the tubular bile duct-like structure”.

Which CYP2B6 expression level [6] does the source give for `CCC1(c2ccccc2)C(=O)NC(=O)NC1=O` [phenobarbital] here?
The CYP2B6 expression level was “induced in both the microfluidic device and the polystyrene plate”.

With `CC[C@@]1(c2ccccc2)NC(=O)N(C)C1=O` [S-mephenytoin] as the compound, how does the Drug absorption rate [4] read?
Its Drug absorption rate is 0.9897.

Which results are given for `OCc1ncc2n1-c1ccc(Cl)cc1C(c1ccccc1F)=NC2` [1-hydroxymidazolam]?
concentration during the observation period [4]: constant; Drug absorption rate [4]: 1.714; absorption in the microfluidic device [4]: also absorbed in the PDMS device; formation rate of metabolite, microfluidic device versus polystyrene plate ([7]; PHH, 5 μM MDZ): similar

With `CCCC(C(=O)OCCN(CC)CC)(c1ccccc1)c1ccccc1` [SKF-525A] as the compound, how does the “formation of 2OH-ATV on treatment with pan-CYP inhibitor” value ([8]; PHH, 100 μM SKF-525A, 1 μM ATV) read?
Its value is “significantly reduced”.

For “5(6)-carboxy-2′,7′-dichlorofluorescein [CDF]”, which “amount of the CDF transported to the lower layer flow path” value [9] is on record?
Its value is “increases”.

Which “concentration during the observation period” value [4] does the source give for `CCc1cccc2cc(C(O)CNC(C)(C)C)oc12` (centres unmarked) [Bufuralol, bufuralol] here?
The value was “constant”.

What about the “concentration as % of initial concentration” value [4] of the same compound?
Its value is 30%.

What about the Drug absorption rate [4] of the same compound?
The Drug absorption rate was 3.327.

And the “absorption in the microfluidic device” value [4]?
The value was “absorbed in the microfluidic device”.

Which “formation of 2OH-ATV” value ([8]; PHH, 1 μM ATV, 1, 2 and 4 hours) does the source give for `CC(C)c1c(C(=O)Nc2ccccc2O)c(-c2ccccc2)c(-c2ccc(F)cc2)n1CCC(O)CC(O)CC(=O)O` (centres unmarked) [2OH-ATV, 2-hydroxyatorvastatin] here?
Its value is “observed in a time-dependent manner”.

And the “formation rate of 2OH-ATV in PHH cultured in the microfluidic device” value [8, 13]?
The value was “partially reduced”.

With `O=C(O)Cc1ccccc1Nc1c(Cl)cccc1Cl` [Diclofenac, diclofenac] as the compound, how does the Drug absorption rate [4] read?
Its Drug absorption rate is 1.043.

For `CC(C)c1onc(-c2c(Cl)cccc2Cl)c1COc1ccc(/C=C/c2cccc(C(=O)O)c2)c(Cl)c1` [GW4046], which “BSEP gene expression level” value [10] is on record?
Its value is “increased in both the PHH cultured in the microfluidic device and the PHH cultured on the polystyrene plate”.

Which “CYP7A1 gene expression level” value [10] does the source give for `C[C@H](CCC(=O)O)[C@H]1CC[C@H]2[C@@H]3[C@H](O)C[C@@H]4C[C@H](O)CC[C@]4(C)[C@H]3CC[C@]12C` [CDCA, chenodeoxycholic acid] here?
Its value is “decreased only in the microfluidic device”.

And the “BSEP gene expression level” value [11]?
Its value is “increased”.

What about the “CYP7A1 gene expression level” value [11] of the same compound?
Its value is “decreased”.

And the “NTCP gene expression level” value [11]?
Its value is “increased”.

With `Cc1ncc2n1-c1ccc(Cl)cc1C(c1ccccc1F)=NC2` [Midazolam, midazolam] as the compound, how does the “concentration during the observation period” value [4] read?
Its value is “constant”.

What about the “concentration as % of initial concentration” value [4] of the same compound?
The value was 9.5%.

What about the Drug absorption rate [4] of the same compound?
The Drug absorption rate was 10.41.

And the “absorption in the microfluidic device” value [4]?
Its value is “absorbed in the microfluidic device”.

And the “amount of the metabolite, microfluidic device versus polystyrene plate” value ([7]; PHH, 5 μM MDZ)?
The value was “smaller”.

And the “clearance (rate of drug metabolite formation divided by concentration of the drug in the culture medium)” value [7, 13]?
Its value is “no difference”.
